Common to all, as to assay type: cell-based, human
One assay relates to Egr1. In words: Immunoblot analysis of Egr1 expression in HEL cells. The following applies: PMA 100 nM, 0-48 h.
Assay [1] relates to WT1. In words: Immunoblot analysis of WT1 expression in HEL cells. The settings on record: PMA 100 nM over 48 h. As for the experimental part: The expression of WT1, Sp1, Egr1, NF-E2, GATA-1 and Ets-1 proteins in HEL cells was confirmed by western blot analysis. Briefly, whole cell protein was resolved by SDS-PAGE (10% acrylamide gels) and transferred to polyvinylidene difluoride (PVDF) membrane according to standard methodology. Membranes were screened using anti-WT1, anti-NF-E2, anti-Sp1, anti-Egr1, anti-GATA-1 or anti-Ets-1 sera in 5% non fat dried milk in 1×TBS (0.01 M Tris/HCl, 0.1 M NaCl) for 2 h at room temperature followed by washing and screening using goat anti-rabbit horseradish peroxidase (sc-2204) followed by chemiluminescence detection, as described by the supplier (Roche Applied Science). For PMA studies, HEL cells were pre-incubated for the indicated amount of time with 100 nM PMA, with 10 μM PD98059, with 100 nM PMA plus 10 μM PD98059 or, as a control, with vehicle [0.1% (v/v) DMSO]. Whole cell protein (60 μg per lane) was resolved by SDS-PAGE (10% acrylamide gels) and transferred to polyvinylidene difluoride (PVDF) membrane according to standard methodology. […] Cells were harvested 48 hr post-transfection and aliquots ([…]) were analysed by SDS-PAGE/western blot analysis. As a positive control for hTF expression, […] of a commercial control Tissue-Factor Biomass was also analysed. […]

Assay [2] deals with −8460 to −8006 region of Prm1. Put plainly: ChIP analysis of WT1, Egr1 and Sp1 binding to Prm1 in PMA-treated HEL cells. The following applies: PMA 100 nM for 5, 8 or 16 h. As for the experimental part:
Chromatin immunoprecipitation (ChIP) assays were performed essentially as described (Koch et al., 2007). Specifically, HEL cells (1×10^8) were pelleted, washed in ice-cold PBS and resuspended in serum-free RPMI 1640. Formaldehyde-cross linked chromatin was sonicated, as described (Koch et al., 2007), to generate fragments 500 bp to 1000 bp in length. Prior to immunoprecipitation (IP), chromatin was incubated with 60 μg normal rabbit IgG overnight at 4° C. on a rotisserie, after which 250 μl of salmon sperm DNA/protein A agarose beads (Millipore) were added and chromatin was precleared for 3 h at 4° C. with rotation. Thereafter, anti-WT1, anti-NF-E2, anti-Sp1, anti-Egr1, anti-GATA-1, anti-Ets-1 ([…]), normal rabbit IgG (10 μg), or a “no antibody” control were used for immunoprecipitation. Following elution, cross-links were reversed by incubation at 65° C. overnight followed by protease digestion with proteinase K (Sigma; 9 μl of 10 mg/ml) at 45° C. for 7 h. After precipitation, samples were resuspended in 50 μl dH2O. PCR analysis was carried out using 2-3 μl of ChIP sample as template or, as a positive control, with an equivalent volume of a 1:20 dilution of the input chromatin DNA. The identities of the primers used for the ChIP PCR reactions, as well as their sequences and corresponding nucleotides within Prm1 are listed below. […]

In assay [3] the test system is WT1. Put plainly: Confocal microscopy of WT1 localization in PMA-treated HEL cells. The settings on record: PMA 100 nM, at 5 h and 8 h. How it is done: HEL 92.1.7 cells were seeded at ˜1×10^5 cells/ml in 2 ml normal growth media (RPMI 1640, 10% FBS) in 6-well plates containing Poly-L-lysine coated coverslips. Cells were grown at 37° C. for 24 h prior to incubating cells with 100 nM PMA for 0, 1, 5, 8, 16 and 24 h. Thereafter, cells were fixed in 3.4% paraformaldehyde and permeabilized with 0.2% Triton X-100 for 10 min on ice, after which cells were immunolabelled with anti-WT1 (1:1000 of 2 μg/μl stock) and AlexaFluor488 conjugated anti-rabbit, followed by counterstaining with DAPI (1 μg/ml in H2O). Images were obtained using Carl Zeiss Lazer Scanning System LSM510 and Zeiss LSM Imaging software for acquiring multi-channel images with filters appropriate for enhanced DAPI & AlexaFluor488.

For the molecule `CCCCCCCCCCCCCC(=O)O[C@@H]1[C@@H](C)[C@@]2(O)[C@@H](C=C(CO)C[C@]3(O)C(=O)C(C)=C[C@@H]23)[C@@H]2C(C)(C)[C@]12OC(C)=O` [PMA, phorbol 12-myristate 13-acetate], the Egr1 protein expression result in the assay on Egr1 was “significant increase in Egr1 expression from 1 to 16 h”. Also, in the assay with WT1 [1], the WT1 protein expression result is “did not substantially alter the expression of the WT1 doublet”. Further, the “Binding of WT1, Egr1 and Sp1 to Prm1 chromatin” value in assay [2] was “substantial changes in the pattern of binding of these factors to distal upstream GC-enriched elements”. In addition, the “Intracellular localization of WT1” value with WT1 [3] is given as “redistribution of WT1 to the cytosolic fraction”.

For the origin of these results see patent US20110269825A1, “Modified Thromboxane A2 Receptor Promoter Sequence” (priority 2008, published 2011).
